# Data taken from patent US5095011A, “Lyophilized cefepime dihydrochloride for parenteral use” (priority 1990, dated 1992).
# Counter-ions that a name gives are not always drawn.
# Assays:
# [1] = Stability of lyophilized amorphous BMY-28142 salts (dry, sealed vials); assay type: physicochemical; settings: for remaining at 168 h: 1 week; for remaining at 1008 h: 6 weeks; for expected shelf life: extrapolated from stability tests; for remaining at 336 h: 2 weeks; for remaining at 672 h: 4 weeks; for remaining at 2184 h: 13 weeks; for remaining at 6888 h: 41 weeks
# Procedure: […] of BMY-28142 Zi was dissolved qs to 33 ml with 1.9 ml of 1N-HCl and water for injection (pH=2.0).
# One ml portion (approximately 65 mg/ml) of the solution were placed into 10cc flint vials which were loosely stoppered with split lyphlization stoppers, frozen to -40° C. and lyphilized at a shelf temperature of 0° C. for 24 hours, then at 24° C. for 24 hours and at 32.2° C. for four hours. The vials were then sealed with aluminum closures and tested for stability at 56°, 45° and 37° C.
# [2] = assay type: physicochemical; settings: water for injection
# Procedure: 375 mg L(+)-Arginine for injection is reconstituted with 4.45 ml of sterile water for injection. The solution is taken up in a syringe and is added to a vial containing lyophilized BMY-28142-2HCl having an activity of 500 mg activity per vial. This solution produces a reconstituted solution suitable for injection which has an activity of about 100 mg BMY-28142 per milliliter.
# Control of the amount of water used for dilution permitted the attainment of high concentrations up to 400 mg BMY-28142 per ml.
# [3] = system: various organisms; settings: U.S. Pat. No. 4,406,899; amorphous zwitterionic form; cited from earlier work
# [4] = dry lyophilized solid, 45° C., second lot, separately prepared
smiles,measurement,setting,value
CO/N=C(\C(=O)NC1C(=O)N2C(C(=O)[O-])=C(C[N+]3(C)CCCC3)CSC12)c1csc(N)n1 (stereo not shown) [Sesqui-PO4],remaining at 168 h,"[1]; dry lyophilized solid, 56° C.",75%
same,remaining at 1008 h,"[1]; dry lyophilized solid, 37° C.",79%
"CO/N=C(\C(=O)N[C@@H]1C(=O)N2C(C(=O)[O-])=C(C[N+]3(C)CCCC3)CS[C@H]12)c1csc(N)n1 [BMY-28142, 7-[α-(2-aminothiazol-4-yl)-α-(Z)-methoxyiminocetamido]-3-[(1-methyl-1-pyrrolidinium)methyl]-3-cephem-4-carboxylate]",concentration attained on reconstitution,[2],up to 400 mg per ml
same,antibacterial spectrum of activity,[3],broader spectrum activity than ceftazidime and cefotaxime
"CO/N=C(\C(=O)NC1C(=O)N2C(C(=O)[O-])=C(C[N+]3(C)CCCC3)CSC12)c1csc(N)n1 (stereo not drawn) [Di-HCl, 7-[α-(2-aminothiazol-4-yl)-α-(Z)-methoxyiminoacetamido]-3-[(1-methyl-1-pyrrolidinium)methyl]-3-cephem-4-carboxylate]",stability of lyophile compared with other lyophilized amorphous salts,[1],"unexpectedly more stable than the lyophilized, amorphous sesqui-H3 PO4, mono-H2 SO4 and mono-HCl salts"
same,expected shelf life,[1]; 4° C.,at least 24 months
same,remaining at 168 h,"[1]; dry lyophilized solid, 45° C.",99.8%
same,remaining at 168 h,[1]; [4],100%
same,remaining at 336 h,"[1]; dry lyophilized solid, 45° C.",97.2%
same,remaining at 336 h,"[1]; dry lyophilized solid, 56° C., second lot, separately prepared",91.8%
same,remaining at 672 h,"[1]; dry lyophilized solid, 37° C.",98.6%
same,remaining at 672 h,[1]; [4],92.5%
same,remaining at 4320 h,"[1]; dry lyophilized solid, 6 months, 25° C., second lot, separately prepared",100%
same,remaining at 1008 h,"[1]; dry lyophilized solid, 37° C., second lot, separately prepared",97.2%
same,remaining at 1344 h,"[1]; dry lyophilized solid, 8 weeks, 56° C.",87%
same,remaining at 2184 h,"[1]; dry lyophilized solid, 37° C.",95.5%
same,remaining at 2184 h,"[1]; dry lyophilized solid, 45° C.",91.6%
same,remaining at 4368 h,"[1]; dry lyophilized solid, 26 weeks, 45° C.",87.7%
same,remaining at 6888 h,"[1]; dry lyophilized solid, 25° C.",98.1%
same,remaining at 6888 h,"[1]; dry lyophilized solid, 37° C.",91.7%
same,remaining at 8736 h,"[1]; dry lyophilized solid, 52 weeks, 25° C., second lot, separately prepared",100%
same,expected shelf life,[1]; room temperature,at least 12 months
